Among the data in BindingDB's records for doi:10.1016/s0960-894x(02)00790-4 (British Biotech Pharmaceuticals, 2002) are Ki and IC50 values, retold here.

Molecules are shown by their SMILES. Counter-ions that a name gives are not always drawn.

The first experiment deals with Peptide deformylase (Escherichia coli) (UniProt P0A6K3). As to the kind of experiment: Compound was evaluated for inhibition of peptide deformylase, PDF.Ni of Escherichia coli.
Sequence of Peptide deformylase (Escherichia coli) (P0A6K3 whole entry, looked up): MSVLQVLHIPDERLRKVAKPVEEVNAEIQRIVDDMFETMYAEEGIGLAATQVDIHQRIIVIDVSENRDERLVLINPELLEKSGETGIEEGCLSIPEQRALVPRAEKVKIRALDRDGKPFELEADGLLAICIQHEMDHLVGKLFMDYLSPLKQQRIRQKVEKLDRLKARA
A word on the Ki: it is the equilibrium dissociation constant of an inhibitor or competing ligand from its target. A higher Ki goes with lower affinity. `CCCC[C@H](CS)C(=O)N[C@@H](CCCCN)C(=O)Nc1ccc([N+](=O)[O-])cc1` [(S)-2-Mercaptomethyl-hexanoic acid [(S)-5-amino-1-(4-nitro-phenylcarbamoyl)-pentyl]-amide] yielded a Ki of 19 nM.

The next experiment has the same target. The description is as above. This is another data set of the same source.
A word on the IC50: it is the concentration needed to halve the response being measured. `CCCC[C@H](NCC(=O)O)C(=O)N[C@H](C(=O)N(C)C)C(C)(C)C` [[(S)-1-((S)-1-Dimethylcarbamoyl-2,2-dimethyl-propylcarbamoyl)-pentylamino]-acetic acid] returned an IC50 above 1000 nM.

The compound `CCCC[C@H](CNC=O)C(=O)N[C@H](C(=O)N(C)C)C(C)(C)C` [(R)-2-Formylaminomethyl-hexanoic acid ((S)-1-dimethylcarbamoyl-2,2-dimethyl-propyl)-amide] registered a half-inhibitory concentration (IC50) above 1000 nM.

`CCCCC(CP(=O)(O)O)C(=O)N[C@H](C(=O)N(C)C)C(C)(C)C` (stereo partly drawn) [[2-((S)-1-Dimethylcarbamoyl-2,2-dimethyl-propylcarbamoyl)-hexyl]-phosphonic acid] came in with a concentration for half-maximal inhibition (IC50) above 1000 nM.

Take `CCCC[C@H](CC(=O)NO)C(=O)N[C@H](C(=O)N(C)C)C(C)(C)C` [(R)-2-Butyl-N*1*-((S)-1-dimethylcarbamoyl-2,2-dimethyl-propyl)-N*4*-hydroxy-succinamide]: inhibition was half-maximal at 1 nM (IC50).

Take `CCCC[C@H](CC(=O)NN)C(=O)N[C@H](C(=O)N(C)C)C(C)(C)C` [(R)-2-Hydrazinocarbonylmethyl-hexanoic acid ((S)-1-dimethylcarbamoyl-2,2-dimethyl-propyl)-amide]: the IC50 came out at 200 nM.

In turn, `CCCCC(CC(=N)NO)C(=O)N[C@H](C(=O)N(C)C)C(C)(C)C` (stereo partly drawn) [(R)-2-(N-Hydroxycarbamimidoylmethyl)-hexanoic acid ((S)-1-dimethylcarbamoyl-2,2-dimethyl-propyl)-amide] displayed a 50% inhibitory concentration (IC50) above 1000 nM.

Turning to `CCCC[C@H](CN(O)C(N)=O)C(=O)N[C@H](C(=O)N(C)C)C(C)(C)C` [(2R)-2-{[(aminocarbonyl)(hydroxy)amino]methyl}-N-{(1S)-1-[(dimethylamino)carbonyl]-(2,2-dimethyl)-propyl}hexanamide], the IC50 was above 1000 nM.

For `CCCCC(C[PH](=O)O)C(=O)N[C@H](C(=O)N(C)C)C(C)(C)C` (stereo partly drawn) [[2-((S)-1-Dimethylcarbamoyl-2,2-dimethyl-propylcarbamoyl)-hexyl]-phosphinic acid], the IC50 was above 1000 nM.

Another experiment has the same target. Described as above. This is another data set of the same source.
Compound `CCCCC(CS)C(=O)NC(CCCNC(=N)N)C(=O)OC` (stereo not given) [5-Guanidino-2-(2-mercaptomethyl-hexanoylamino)-pentanoic acid methyl ester; TFA] displayed an inhibition constant (Ki) of 2500 nM.
